Experimental data from patent US8546410B2, “Heteroaryl-fused macrocyclic pyrimidine derivatives” (AbbVie Inc., priority 2008, dated 2013).

Experiments:
histamine H4 receptor [1] = target: T1, histamine H4 receptor (Homo sapiens, UniProt Q9H3N8); assay: 3H-histamine competition binding assay, membranes of transfected HEK-293 cells; conditions: displacement of [3H]-histamine, 25° C., 1 hour; Ki by Cheng-Prusoff equation; read-out: Potency
T1 construct: expressed in transfected cells
Protocol: The potency of compounds of the invention in displacing ^3H-histamine in competition binding assays is assessed by methods described in Esbenshade, et al., Biochemical Pharmacology (2004), vol. 68, pp. 933-945. In this assay, membranes were prepared from HEK-293 cells transiently transfected with the pCINeo expression vector harboring the histamine H4 receptor by homogenization of the cells on ice in TE buffer (50 mM Tris-HCl buffer, pH 7.4, containing 5 mM EDTA), 1 mM benzamidine, 2 μg/ml aprotinin, 1 μg/ml leupeptin, and 1 μg/ml pepstatin. The homogenate was centrifuged at 40,000 g for 20 minutes at 4° C. This step was repeated, and the resulting pellet was resuspended in TE buffer. Aliquots were frozen at −70° C. until needed. On the day of assay, membranes were thawed and diluted with TE buffer. Competition radioligand binding assays were performed with increasing concentrations of test compound in the presence of [^3H]-histamine incubated at 25° C. for 1 hour in a total volume of 0.5 ml of 50 mM Tris, 5 mM EDTA, pH 7.4. All binding reactions were terminated by filtration under vacuum onto polyethylenimine (0.3%) presoaked Unifilters (PerkinElmer Life Sciences) or Whatman GF/B filters (Whatman, Clifton, N.J.) followed by three brief washes with 4 ml of ice-cold TE buffer. Bound radiolabel was determined by liquid scintillation counting. For all of the radioligand competition binding assays, IC50 values and Hill slopes were determined by Hill transformation of the data and Ki values were determined by the Cheng-Prusoff equation. The following table of representative histamine H4 receptor ligands is provided, along with potency values: […]

histamine H4 receptor [2] = target: T1, histamine H4 receptor; assay: In vitro histamine H4 potency in FLIPR (Ca2+ flux, Fluo-4, HEK-293 cells coexpressing Gαqi5); assay type: cell-based; conditions: Kb values for antagonists and inverse agonists, EC50 values for partial agonists
Description: There are many methods available to show the effectiveness of compounds as histamine H4 receptor ligands. Histamine H4 receptors from mammalian species have been cloned. Methods to clone, express, and assess the potency and functional activity of such cloned genes are well known to those skilled in the art of molecular biology. Examples of methods of cloning and expressing histamine H4 receptors, and of assessing the potency and functional activity are described in Nguyen, et al. Molecular Pharmacology (2001) vol. 59 pp. 427-433; Zhu, et al. Molecular Pharmacology (2001) vol. 59 pp. 434-441; Coge, et al., Biochemical and Biophysical Research Communications (2001) vol. 284, pp. 301-309; Liu, et al. Molecular Pharmacology (2001) vol. 59 pp. 420-426; Liu, et al. Journal of Pharmacology and Experimental Therapeutics (2001) v. 299, pp. 121-130; and Thurmond, et al. Journal of Pharmacology and Experimental Therapeutics (2004) v. 309, pp. 404-413. In the present case, to determine the potency and effectiveness of representative compounds of this invention as histamine-H4 receptor ligands (H4 receptor ligands), the following tests were conducted according to previously described methods (see Esbenshade, et al., Biochemical Pharmacology (2004), vol. 68, pp. 933-945, and in Krueger, et al., Journal of Pharmacology and Experimental Therapeutics (2005) v. 314, pp. 271-281): histamine H4 receptors were cloned and stably expressed in HEK-293 (human embryonic kidney) cells coexpressing a Gαqi5. Before testing, cells are loaded with a Ca^+2 sensitive fluorescent dye, in this case Fluo-4. In the case of partial agonist or agonist ligands, addition of compound to the cells leads to the increase in intracellular Ca^+2 which is detected by FLIPR (Fluorescence Imaging Plate Reader; Molecular Devices, Sunnyvale, Calif.) technology. In a similar manner, compounds that are antagonists or inverse agonists, block the increase in fluorescence induced by the full histamine H4 agonist histamine, and partial agonists reduce the amount of fluorescence induced by the full histamine H4 agonist histamine. The fluorescence intensities measured before addition of the test compound are subtracted from the fluorescence intensities at later time points. Peak response values determined at each concentration of ligand are expressed as a percentage of the response obtained with the full agonist histamine. Concentration versus response data are analyzed to obtain compound potency as Kb values for antagonists and inverse agonists and as EC50 values for partial agonists.

T1 sequence (Q9H3N8 whole entry, species assumed): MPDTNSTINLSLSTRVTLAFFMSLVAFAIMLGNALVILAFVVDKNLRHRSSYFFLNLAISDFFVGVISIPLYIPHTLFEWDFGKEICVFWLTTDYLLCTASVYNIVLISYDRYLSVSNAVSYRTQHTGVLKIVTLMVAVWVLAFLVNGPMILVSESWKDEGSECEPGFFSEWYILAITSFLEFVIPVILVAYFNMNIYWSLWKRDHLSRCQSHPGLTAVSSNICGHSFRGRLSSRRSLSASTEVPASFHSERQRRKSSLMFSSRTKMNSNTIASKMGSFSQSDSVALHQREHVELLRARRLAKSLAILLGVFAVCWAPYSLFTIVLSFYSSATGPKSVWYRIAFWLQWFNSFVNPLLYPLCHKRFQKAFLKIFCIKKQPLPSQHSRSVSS

Row | Compound | Ki (histamine H4 receptor [1]) [nM] | Potency (histamine H4 receptor [2]) [nM]
1 | Nc1nc2c(c(N3C[C@H]4CCCN[C@H]4C3)n1)CCCc1sccc1-2 [Example 18, 4-[(4aR,7aR)-octahydro-6H-pyrrolo [3,4-b]pyridin-6-yl]-6,7-dihydro-5H-thieno[2′,3′:6,7]cyclohepta[1,2-d]pyrimidin-2-amine] | 1.8 | 6
2 | Cn1ncc2c1CCCc1c-2nc(N)nc1N1CC[C@@H](N)C1 [Example 9, 4-[(3R)-3-aminopyrrolidin-1-yl]-8-methyl-5,6,7,8-tetrahydropyrazolo[3′,4′:6,7]cyclohepta[1,2-d]pyrimidin-2-amine] | 426 | 105
3 | Cc1noc2c1-c1nc(N)nc(N3CCN(C)CC3)c1CCC2 [Example 16, 10-methyl-4-(4-methylpiperazin-1-yl)-6,7-dihydro-5H-isoxazolo[5′,4′:6,7]cyclohepta[1,2-d]pyrimidin-2-amine] |  | 2350
4 | Nc1nc2c(c(N3CC4CCCNC4C3)n1)CCCc1sc(Br)cc1-2 (stereo not shown) [Example 12, 9-bromo-4-octahydro-6H-pyrrolo[3,4-b]pyridin-6-yl-6,7-dihydro-5H-thieno[2′,3′:6,7]cyclohepta[1,2-d]pyrimidin-2-amine] |  | 35
5 | CN1CCN(c2nc(N)nc3c2CCc2sccc2-3)CC1 [Example 21, 4-(4-methylpiperazin-1-yl)-5,6-dihydrothieno[2,3-h]quinazolin-2-amine] | 80 | 
6 | Nc1nc2c(c(N3CC[C@@H](N)C3)n1)CCCc1sccc1-2 [Example 2, 4-[(3R)-3-aminopyrrolidin-1-yl]-6,7-dihydro-5H-thieno[2′,3′:6,7]cyclohepta[1,2-d]pyrimidin-2-amine] | 10 | 6.6
7 | CN[C@@H]1CCN(c2nc(N)nc3c2CCCc2c-3cnn2-c2ccccc2)C1 [Example 11, 4-[(3R)-3-(methylamino)pyrrolidin-1-yl]-8-phenyl-5,6,7,8-tetrahydropyrazolo[3′,4′:6,7]cyclohepta[1,2-d]pyrimidin-2-amine] |  | 46
8 | Nc1nc2c(c(N3CC[C@@H](N)C3)n1)CCCc1cccnc1-2 [Example 15, 4-[(3R)-3-aminopyrrolidin-1-yl]-6,7-dihydro-5H-pyrido[3′,2′:6,7]cyclohepta[1,2-d]pyrimidin-2-amine] |  | 35
9 | Cc1cc2c(o1)CCCc1c-2nc(N)nc1N1CC[C@@H](N)C1 [Example 6, 4-[(3R)-3-aminopyrrolidin-1-yl]-9-methyl-6,7-dihydro-5H-furo[2′,3′:6,7]cyclohepta[1,2-d]pyrimidin-2-amine] |  | 252
10 | Nc1nc2c(c(N3CC4CCCNC4C3)n1)CCCc1sc(-c3ccccc3)cc1-2 (stereo not shown) [Example 13, 4-octahydro-6H-pyrrolo[3,4-b]pyridin-6-yl-9-phenyl-6,7-dihydro-5H-thieno[2′,3′:6,7]cyclohepta[1,2-d]pyrimidin-2-amine] |  | 700
11 | Cc1noc2c1-c1nc(N)nc(N3CC[C@@H](N)C3)c1CCC2 [Example 17, 4-[(3R)-3-aminopyrrolidin-1-yl]-10-methyl-6,7-dihydro-5H-isoxazolo[5′,4′:6,7]cyclohepta[1,2-d]pyrimidin-2-amine] |  | 1860
12 | CN1CCN(c2nc(N)nc3c2CCCc2c-3cnn2C)CC1 [Example 8, 8-methyl-4-(4-methylpiperazin-1-yl)-5,6,7,8-tetrahydropyrazolo[3′,4′:6,7]cyclohepta[1,2-d]pyrimidin-2-amine] |  | 107
13 | Nc1nc2c(c(N3CC4CCCNC4C3)n1)CCCc1sccc1-2 (stereo not shown) [Example 1, 4-octahydro-6H-pyrrolo[3,4-b]pyridin-6-yl-6,7-dihydro-5H-thieno[2′,3′:6,7]cyclohepta[1,2-d]pyrimidin-2-amine] | 6 | 17
14 | Nc1nc2c(c(N3CC4CCCNC4C3)n1)CCCc1ccoc1-2 (stereo not shown) [Example 7, 4-octahydro-6H-pyrrolo[3,4-b]pyridin-6-yl-6,7-dihydro-5H-furo[3′,2′:6,7]cyclohepta[1,2-d]pyrimidin-2-amine] | 165 | 20
15 | CN[C@@H]1CCN(c2nc(N)nc3c2CCCc2sccc2-3)C1 [Example 3, 4-[(3R)-3-(methylamino)pyrrolidin-1-yl]-6,7-dihydro-5H-thieno[2′,3′:6,7]cyclohepta[1,2-d]pyrimidin-2-amine] | 8.8 | 3.7
16 | CC(C)(C)n1ncc2c1CCCc1c-2nc(N)nc1N1CC2CCCNC2C1 (stereo not shown) [Example 10, 8-tert-butyl-4-octahydro-6H-pyrrolo[3,4-b]pyridin-6-yl-5,6,7,8-tetrahydropyrazolo[3′,4′:6,7]cyclohepta[1,2-d]pyrimidin-2-amine] | 44 | 187
17 | CN1CCN(c2nc(N)nc3c2CCCc2cccnc2-3)CC1 [Example 14, 4-(4-methylpiperazin-1-yl)-6,7-dihydro-5H-pyrido[3′,2′:6,7]cyclohepta[1,2-d]pyrimidin-2-amine] |  | 37
18 | Cc1cc2c(o1)CCCc1c-2nc(N)nc1N1CC2CCCNC2C1 (stereo not shown) [Example 5, 9-methyl-4-octahydro-6H-pyrrolo[3,4-b]pyridin-6-yl-6,7-dihydro-5H-furo[2′,3′:6,7]cyclohepta[1,2-d]pyrimidin-2-amine] |  | 34
19 | CN1CCN(c2nc(N)nc3c2CCc2nn(-c4ccccc4)nc2-3)CC1 [Example 20, 6-(4-methylpiperazin-1-yl)-2-phenyl-4,5-dihydro-2H-[1,2,3]triazolo[4,5-h]quinazolin-8-amine] | 1300 | 
20 | Nc1nc2c(c(N3CC4CCCNC4C3)n1)CCCc1occc1-2 (stereo not shown) [Example 4, 4-octahydro-6H-pyrrolo[3,4-b]pyridin-6-yl-6,7-dihydro-5H-furo[2′,3′:6,7]cyclohepta[1,2-d]pyrimidin-2-amine] | 12 | 14
